Assay results as given in PMC12677653, “Inhibition of Tumor Lipogenesis and Growth by Peptide‐Based Targeting of SREBP Activation” (Advanced Science, 2025).

Columns and labels:
Huh7 cells = assay: Triglyceride (TG) detection assay, Huh7; type: cell-based, human; details: peptide 25 µM, IGF1 100 ng/mL 24 h, n = 3
Experimental: Figure 1 The Insig1/2 loop 1 peptide binds to S90‐phosphorylated PCK1 and blocks PCK1‐mediated SREBP activation and tumor cell proliferation. Immunoblotting analyses were performed using the indicated antibodies; representative results from three independent experiments are shown (IP, immunoprecipitation; WB, western blot). a) Huh7 cells expressing various Insig1 (top) or Insig2 (bottom) truncation mutants were treated with or without IGF1 (100 ng mL^−1) for 1 h. b,c) Biolayer interferometry assays (Sartorius Octet) were employed to measure the binding affinity of Insig1/2 loop 1 peptide to GST‐PCK1 or GST‐PCK1 pS90 proteins. […] Statistical significance was determined by one‐way analysis of variance (ANOVA). g) Following pretreatment with Insig1/2 loop 1 peptide (15 µM) and IGF1 stimulation (100 ng mL^−1, 8 h), Huh7 cells were subjected to immunofluorescence analysis (scale bar: 10 µm). h) Quantitative PCR analysis of SREBP1 target gene GPAM in Huh7 cells pretreated with Insig1/2 loop 1 peptide (15 µM) and stimulated with IGF1 (100 ng mL^−1) for 10 h. […] Statistical significance was determined by one‐way analysis of variance (ANOVA). i) Quantitative PCR analysis of SREBP1 target gene FASN in Huh7 cells pretreated with Insig1/2 loop 1 peptide (15 µM) and stimulated with IGF1 (100 ng mL^−1) for 10 h. […]

[1] = tested on: Insig1 S207/Insig2 S151 phosphorylation; assay: Immunoblot of Insig1 S207/Insig2 S151 phosphorylation, Hep3B; type: cell-based, human; details: Hep3B cells, peptide 7.5 or 15 μM 1 h before IGF1 100 ng/mL
Experimental: Cellular proteins were extracted using ice‐cold lysis buffer [50 mM Tris‐HCl (pH 7.5), 150 mM NaCl, 0.1% SDS, 1% Triton X‐100, 1 mM DTT, 0.5 mM EDTA] supplemented with protease inhibitor cocktail (Roche) and phosphatase inhibitors (Bimake). Following lysis, cell extracts were centrifuged at 13400 × g for 15 min at 4 °C to remove cellular debris. The clarified supernatants were then incubated with primary antibodies overnight at 4 °C with gentle rotation. For Flag‐tagged protein immunoprecipitation, Flag M2 magnetic beads (Sigma) were added to the lysate‐antibody mixture and incubated for an additional 4 h at 4 °C. The immunocomplexes were washed three times with lysis buffer under stringent conditions (5 min per wash with rotation). Finally, the precipitated proteins were eluted and analyzed by immunoblotting as previously described.^[ [35] ^]
e) Hep3B cells were pretreated with low (7.5 μM) or high (15 μM) concentrations of Insig1/2 loop 1 peptide for 1 h before IGF1 (100 ng ml⁻¹) stimulation.

Sequence: RKKRRQRRRLYPCIDSHLGEPHKFKRE [Insig1/2 loop 1 peptide]
- IGF1-induced increase in triglycerides (TGs) (Huh7 cells): reduced
- Insig1 S207/Insig2 S151 phosphorylation [1]: markedly inhibited
